Source: the supplement of paper PMC4976141
± gives the uncertainty stated by the source.

Columns and labels:
COLO-205 [1] = test: % viability in DMSO, miRNA mimic relative to NTC in DMSO; higher = less cytotoxic; conditions: drug used in drug arm: AZ628 1 uM; treatment: DMSO
Experimental: (§1)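 26 miRNA mimics were transfected into 8 cancer cell lines in triplicate. 48 h post-transfection, cells were treated 72 h with DMSO or a line-specific drug, then recovered 72 h drug-free. Drugs: COLO-205 AZ628 1 uM, MKN-45 crizotinib 1 uM, NCI-H596 paclitaxel 6 uM, EVSA-T GDC-0980 2.5 uM, M14 AZ628 1 uM, HCC-1954 GDC-0980 2.5 uM, NCI-H441 carboplatin 2.5 uM, SKBr3 lapatinib 1 uM. Surviving cells are expressed as % of NTC-transfected cells in DMSO (the NTC drug arm itself is about 30-50%), mean +- SEM.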

EVSA-T [2] = test: as above; conditions: drug used in drug arm: GDC-0980 2.5 uM; treatment: DMSO
Experimental: as §1

HCC-1954 [3] = test: as above; conditions: drug used in drug arm: GDC-0980 2.5 uM; treatment: DMSO
Experimental: as §1

M14 [4] = test: as above; conditions: drug used in drug arm: AZ628 1 uM; treatment: DMSO
Experimental: as §1

MKN-45 [5] = test: as above; conditions: drug used in drug arm: crizotinib 1 uM; treatment: DMSO
Experimental: as §1

NCI-H441 [6] = test: as above; conditions: drug used in drug arm: carboplatin 2.5 uM; treatment: DMSO
Experimental: as §1

NCI-H596 [7] = test: as above; conditions: drug used in drug arm: paclitaxel 6 uM; treatment: DMSO
Experimental: as §1

SK-BR-3 [8] = test: as above; conditions: drug used in drug arm: lapatinib 1 uM; treatment: DMSO
Experimental: as §1

COLO-205 [9] = test: % viability under drug (72 h drug + 72 h recovery), miRNA mimic relative to NTC in DMSO; higher = more surviving cells; conditions: drug used in drug arm: AZ628 1 uM; treatment: drug
Experimental: as §1

EVSA-T [10] = test: as above; conditions: drug used in drug arm: GDC-0980 2.5 uM; treatment: drug
Experimental: as §1

HCC-1954 [11] = test: as above; conditions: drug used in drug arm: GDC-0980 2.5 uM; treatment: drug
Experimental: as §1

M14 [12] = test: as above; conditions: drug used in drug arm: AZ628 1 uM; treatment: drug
Experimental: as §1

MKN-45 [13] = test: as above; conditions: drug used in drug arm: crizotinib 1 uM; treatment: drug
Experimental: as §1

NCI-H441 [14] = test: as above; conditions: drug used in drug arm: carboplatin 2.5 uM; treatment: drug
Experimental: as §1

NCI-H596 [15] = test: as above; conditions: drug used in drug arm: paclitaxel 6 uM; treatment: drug
Experimental: as §1

SK-BR-3 [16] = test: as above; conditions: drug used in drug arm: lapatinib 1 uM; treatment: drug
Experimental: as §1

PC9 = test: cell count fold change with erlotinib, miRNA mimic vs non-targeting control (log2 ratio); higher = more drug-tolerant survivors than NTC; conditions: erlotinib 1 µM; 72 h drug + 72 h drug-free recovery; perturbation: miRNA mimic

Row | Sequence | % viability in DMSO (COLO-205 [1]) | % viability in DMSO (EVSA-T [2]) | % viability in DMSO (HCC-1954 [3]) | % viability in DMSO (M14 [4]) | % viability in DMSO (MKN-45 [5]) | % viability in DMSO (NCI-H441 [6]) | % viability in DMSO (NCI-H596 [7]) | % viability in DMSO (SK-BR-3 [8]) | % viability under drug (COLO-205 [9]) | % viability under drug (EVSA-T [10]) | % viability under drug (HCC-1954 [11]) | % viability under drug (M14 [12]) | % viability under drug (MKN-45 [13]) | % viability under drug (NCI-H441 [14]) | % viability under drug (NCI-H596 [15]) | % viability under drug (SK-BR-3 [16]) | cell count fold change with erlotinib (PC9)
1 | CAAUGUUUCCACAGUGCAUCAC | 98.6 ± 2% | 2.27 ± 1.2% | 7.62 ± 0.18% | 42.7 ± 9% | 2.31 ± 0.74% | 2.78 ± 0.14% | 15.2 ± 1.5% | 16.8 ± 1.4% | 29.2 ± 4.1% | 0.155 ± 0.049% | 1.26 ± 0.032% | 5.66 ± 1.1% | 0.794 ± 0.25% | 4.19 ± 0.47% | 0.731 ± 0.068% | 9.29 ± 0.1% | -2.66
2 | GCGAGGACCCCUCGGGGUCUGAC | 105.2 ± 0.58% | 40.8 ± 0.66% | 56.4 ± 10% | 43.3 ± 5.2% | 53.2 ± 7% | 21.6 ± 1.6% | 76.8 ± 10% | 48.4 ± 5% | 43 ± 1.1% | 1.21 ± 0.28% | 2.54 ± 0.19% | 8.07 ± 0.6% | 1.84 ± 0.18% | 7.07 ± 0.39% | 3.656 ± 0.036% | 16.6 ± 6.8% | 0.35
3 | AAAAGUAAUUGUGGUUUUUGCC | 95 ± 6.9% | 71.9 ± 2.7% | 110 ± 9.3% | 85.4 ± 3.8% | 156 ± 2.2% | 106 ± 7.8% | 98.8 ± 8.3% | 80.3 ± 4.8% | 46.4 ± 1.6% | 0.3585 ± 0.0025% | 2.67 ± 0.17% | 21.9 ± 1.3% | 4.45 ± 0.12% | 24.2 ± 3.6% | 0.738 ± 0.0075% | 39.2 ± 11% | 0.561
4 | GAAUGUUGCUCGGUGAACCCCU | 102 ± 1.1% | 0.953 ± 0.055% | 10.8 ± 1.4% | 17.3 ± 2.9% | 8.61 ± 2.6% | 7.26 ± 0.039% | 7.07 ± 2.1% | 12.4 ± 5.7% | 36.6 ± 1.2% | 0.08 ± 0.004% | 0.831 ± 0.092% | 3.18 ± 0.17% | 0.355 ± 0.046% | 4.29 ± 0.14% | 0.932 ± 0.015% | 10.1 ± 0.42% | -3.27
5 | GUCAUACACGGCUCUCCUCUCU | 106 ± 3.9% | 3.87 ± 1.8% | 29.6 ± 4.2% | 15.5 ± 2.3% | 10.5 ± 0.39% | 8.42 ± 0.15% | 9.78 ± 0.74% | 17.1 ± 4.5% | 33 ± 2.9% | 0.124 ± 0.028% | 1.04 ± 0.13% | 1.73 ± 0.53% | 0.526 ± 0.15% | 3.92 ± 0.51% | 0.466 ± 0.077% | 12.8 ± 1.4% | -5.7
6 | ACAGUAGAGGGAGGAAUCGCAG | 94 ± 5.5% | 25.6 ± 1.8% | 64.5 ± 2.5% | 20 ± 3.4% | 31.6 ± 9.1% | 34.6 ± 18% | 65.6 ± 2.4% | 67.8 ± 13% | 37.6 ± 4.1% | 0.124 ± 0.035% | 1.37 ± 0.43% | 4.04 ± 0.76% | 0.428 ± 0.005% | 38.6 ± 6.2% | 0.53 ± 0.13% | 25.7 ± 0.71% | -3.56
7 | AAAAGUACUUGCGGAUUUUGCU | 101 ± 4.5% | 64.63 ± 0.49% | 100 ± 4.8% | 99.3 ± 19% | 142 ± 17% | 67.7 ± 7.8% | 89.1 ± 8.1% | 161 ± 7.2% | 49.9 ± 1.1% | 1.66 ± 0.013% | 4.02 ± 0.49% | 22.8 ± 0.71% | 4.2 ± 0.41% | 11.3 ± 2.9% | 2.53 ± 0.066% | 49.8 ± 2.7% | -3.1
8 | AGUUAAUGAAUCCUGGAAAGU | 101.6 ± 0.44% | 26.1 ± 11% | 48.3 ± 2% | 55.5 ± 2.1% | 40.6 ± 10% | 61.6 ± 15% | 25.4 ± 6.1% | 33.3 ± 1.6% | 43.4 ± 1.2% | 0.344 ± 0.059% | 1.99 ± 0.45% | 9.17 ± 1.3% | 1.55 ± 0.042% | 14.3 ± 0.47% | 0.869 ± 0.086% | 19.2 ± 4% | -4.81
9 | UAGGUAGUUUCAUGUUGUUGGG | 93.2 ± 4.5% | 11.4 ± 8.3% | 57.1 ± 7.2% | 69.5 ± 28% | 49.8 ± 27% | 23.3 ± 13% | 18.4 ± 2.9% | 39.6 ± 14% | 34.7 ± 0.96% | 0.1635 ± 0.0015% | 1.26 ± 0.1% | 6.29 ± 0.61% | 1.52 ± 0.25% | 6.39 ± 0.21% | 1.48 ± 0.34% | 16.1 ± 2.1% | -5.25
10 | AACGCCAUUAUCACACUAAAUA | 106 ± 2% | 23.6 ± 3.1% | 81.2 ± 2.9% | 73.5 ± 3.2% | 27.1 ± 3.8% | 13.2 ± 1.1% | 62.43 ± 0.46% | 22.3 ± 5.5% | 43 ± 1.6% | 0.459 ± 0.079% | 2.25 ± 0.44% | 12.8 ± 0.75% | 1.35 ± 0.4% | 10.2 ± 2.8% | 0.97 ± 0.026% | 11.5 ± 1.4% | 0.733
11 | GAGCCAGUUGGACAGGAGC | 101 ± 6.3% | 28.9 ± 1% | 34 ± 6.2% | 97.9 ± 14% | 70.7 ± 8% | 60.7 ± 17% | 66.947 ± 0.021% | 178 ± 130% | 38.9 ± 1% | 0.0905 ± 0.0095% | 0.433 ± 0.085% | 6.67 ± 1.9% | 1.7 ± 0.21% | 18.1 ± 1.8% | 0.418 ± 0.032% | 48.1 ± 28% | -4.82
12 | AAAAGUAAUUGCGGAUUUUGCC | 101 ± 4.2% | 85.7 ± 0.94% | 117 ± 9.9% | 119 ± 24% | 136 ± 19% | 182 ± 14% | 95.4 ± 3.6% | 73.43 ± 0.24% | 42.6 ± 1% | 0.608 ± 0.1% | 3.99 ± 0.13% | 18 ± 0.42% | 4.35 ± 0.71% | 29.7 ± 2.4% | 1.3 ± 0.04% | 45.73 ± 0.37% | 0.467
13 | AGGCGGAGACUUGGGCAAUUG |  |  |  |  |  |  |  |  |  |  |  |  |  |  |  |  | -3.29
